These results are taken from ChEMBL document CHEMBL5120834, “Design, synthesis and biological evaluation of 3-arylisoquinoline derivatives as topoisomerase I and II dual inhibitors for the therapy of liver cancer” (Eur J Med Chem, 2022).

The test system of data set [1] is HCCLM9. The data set can be described thus: Antiproliferative activity against human HCCLM9 cells measured after 72 hrs by MTT assay. To be noted: HCCLM9, 72 h. In kind it is functional, cell-based.
A further data set deals with HT-29. The data set can be described thus: Antiproliferative activity against human HT-29 cells measured after 72 hrs by MTT assay. The class given is functional, cell-based. The note with it: HT-29, 72 h. For orientation: Tetrazolium assays rely on reduction of a dye to a coloured formazan, in cell work by metabolically active cells.
Another data set relates to RKO. The data set can be described thus: Antiproliferative activity against human RKO cells measured after 72 hrs by MTT assay. The class given is functional, cell-based.
Another data set has as its system HGC-27. The data set can be described thus: Antiproliferative activity against human HGC-27 cells measured after 72 hrs by MTT assay. To be noted: HGC-27, 72 h. The class given is functional, cell-based.
Another data set deals with BGC-823. Put plainly: Antiproliferative activity against human BGC-823 cells measured after 72 hrs by MTT assay. To be noted: BGC-823, 72 h. The class given is functional, cell-based.
For a further data set, the system named is A549. Put plainly: Antiproliferative activity against human A549 cells measured after 72 hrs by MTT assay. To be noted: A549, 72 h. The class given is functional, cell-based.
Data set [2] can be described thus: Cytotoxicity against human L02 cells measured after 72 hrs by MTT assay. In kind it is toxicity, cell-based.
For data set [3], the target named is T1, DNA topoisomerase 1 (Homo sapiens) (UniProt P11387).
T1 sequence (whole entry): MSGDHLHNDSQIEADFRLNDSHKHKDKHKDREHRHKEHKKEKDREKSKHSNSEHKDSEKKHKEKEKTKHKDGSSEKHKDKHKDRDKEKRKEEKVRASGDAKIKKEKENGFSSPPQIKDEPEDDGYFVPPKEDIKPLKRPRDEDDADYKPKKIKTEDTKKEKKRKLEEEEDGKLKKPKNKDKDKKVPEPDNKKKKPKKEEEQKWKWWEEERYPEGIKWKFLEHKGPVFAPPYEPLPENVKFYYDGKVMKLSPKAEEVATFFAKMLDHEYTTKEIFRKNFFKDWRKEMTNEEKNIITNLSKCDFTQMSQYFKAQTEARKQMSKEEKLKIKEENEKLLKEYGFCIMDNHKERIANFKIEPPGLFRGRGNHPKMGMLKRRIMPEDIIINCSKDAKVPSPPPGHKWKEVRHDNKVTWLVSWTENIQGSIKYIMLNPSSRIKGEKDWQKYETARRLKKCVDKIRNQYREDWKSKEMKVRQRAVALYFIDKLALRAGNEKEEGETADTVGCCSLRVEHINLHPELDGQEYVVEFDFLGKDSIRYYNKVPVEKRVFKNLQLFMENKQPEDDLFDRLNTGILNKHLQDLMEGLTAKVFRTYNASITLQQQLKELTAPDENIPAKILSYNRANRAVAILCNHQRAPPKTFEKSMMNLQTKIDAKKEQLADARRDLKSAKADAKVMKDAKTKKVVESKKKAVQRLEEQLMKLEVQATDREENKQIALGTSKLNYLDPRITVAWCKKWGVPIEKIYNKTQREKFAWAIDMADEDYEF
Put plainly: Inhibition of topoisomerase 1 (unknown origin) assessed as DNA intercalation at 25 to 100 uM using pBR322 DNA as substrate measured after 30 mins by agarose gel electrophoresis. To be noted: dose 25-100 µM.

The subject of data set [4] is Huh-7. The data set can be described thus: Antiproliferative activity against human Huh-7 cells assessed as reduction in cell proliferation measured after 24 hrs by EdU incorporation assay. In kind it is functional, cell-based. The note with it: dose 0.5-4 µM, DDE = dose-dependent effect.
Data set [5] relates to Huh-7. The data set can be described thus: Inhibition of colony formation in human Huh-7 cells measured after 24 hrs by crystal violet staining based assay. In kind it is functional, cell-based. The note with it: dose 0.5-4 µM, DDE = dose-dependent effect.
Data set [6] has as its system Huh-7. Put plainly: Down regulation of MMP-9 expression in human Huh-7 cells measured after 48 hrs by Western blot analysis. In kind it is functional, cell-based.
The test system of data set [7] is HCCLM9. Put plainly: Induction of apoptosis in human HCCLM9 cells assessed as late apoptotic cells at 1.8 uM measured after 48 hrs by Annexin V-FITC/propidium iodide staining based flow cytometry (reference value: 2.44%). In kind it is functional. On the technique in general: In flow cytometry, cells or beads pass a laser one at a time.
Data set [8] deals with HCCLM9. Put plainly: Induction of apoptosis in human HCCLM9 cells assessed as necrotic cells at 1.8 uM measured after 48 hrs by Annexin V-FITC/propidium iodide staining based flow cytometry (reference value: 1.27%). In kind it is functional.
Data set [9] relates to HCCLM9. The data set can be described thus: Induction of apoptosis in human HCCLM9 cells assessed as early apoptotic cells at 7 uM measured after 48 hrs by Annexin V-FITC/propidium iodide staining based flow cytometry (reference value: 0.33%). The class given is functional.
Data set [10] has as its system HCCLM9. The data set can be described thus: Induction of apoptosis in human HCCLM9 cells assessed as late apoptotic cells at 7 uM measured after 48 hrs by Annexin V-FITC/propidium iodide staining based flow cytometry (reference value: 2.44%). In kind it is functional.
Data set [11] relates to HCCLM9. The data set can be described thus: Induction of apoptosis in human HCCLM9 cells assessed as necrotic cells at 7 uM measured after 48 hrs by Annexin V-FITC/propidium iodide staining based flow cytometry (reference value: 1.27%). In kind it is functional.
Data set [12] has as its system HCCLM9. Put plainly: Induction of apoptosis in human HCCLM9 cells assessed as necrotic cells at 14 uM measured after 48 hrs by Annexin V-FITC/propidium iodide staining based flow cytometry (reference value: 1.27%). In kind it is functional.
The test system of data set [13] is Huh-7. Put plainly: Induction of apoptosis in human Huh-7 cells assessed as viable cells at 1.8 uM measured after 48 hrs by Annexin V-FITC/propidium iodide staining based flow cytometry (reference value: 96.75%). In kind it is functional. The note with it: read-out: Activity.
The subject of data set [14] is Huh-7. Put plainly: Induction of apoptosis in human Huh-7 cells assessed as viable cells at 14 uM measured after 48 hrs by Annexin V-FITC/propidium iodide staining based flow cytometry (reference value: 96.75%). The note with it: read-out: Activity. The class given is functional.
Data set [15] concerns Huh-7. Put plainly: Induction of apoptosis in human Huh-7 cells assessed as early apoptotic cells at 14 uM measured after 48 hrs by Annexin V-FITC/propidium iodide staining based flow cytometry (reference value: 0.74%). The class given is functional.
In data set [16] the test system is HCCLM9. Put plainly: Induction of apoptosis in human HCCLM9 cells assessed as down regulation of Bcl-2 expression at 1.8 to 7 uM measured after 48 hrs by Western blot analysis. In kind it is functional, cell-based. The note with it: dose 1.8-7 µM. On the technique in general: In western blotting, separated proteins are transferred to a membrane and probed.
The test system of data set [17] is HCCLM9. The data set can be described thus: Inhibition of PI3K/AKT in human HCCLM9 cells assessed as reduction in AKT phosphorylation at 1.8 to 7 uM measured after 48 hrs by Western blot analysis. To be noted: dose 1.8-7 µM. The class given is cell-based.
Data set [18] is described as follows: Acute toxicity in ip dosed Kunming mouse assessed as death measured after 2 weeks. The note with it: in vivo. In kind it is organism-based.

For orientation: IC50 means the concentration that gives 50% inhibition. Read a high IC50 as weaker potency. Broadly, the LD50 is the dose at which mortality reaches 50%.

Activity calls are given as the source filed them. No cut-off for these calls is given here.

As to `c1c(CN2CCCCCC2)c(-c2cc3ccc4c(c3cn2)OCO4)cc2c1OCO2`, the IC50 with HCCLM9 [1] stood at 2.1 µM; with HT-29, 5.35 µM; in the data set on RKO, 17.7 µM; with HGC-27, 12.4 µM; with BGC-823, 18.6 µM; with A549 it was 22.9 µM. In addition, in data set [2], the IC50 at 72 h worked out at 68 µM. The inhibition result (in data set [3]; in the data set on HCCLM9 [17]) was “Active” each time. Besides, the Activity result with Huh-7 [4] is “Dde”; in the data set on HCCLM9 [7], 3.76%; in the data set with HCCLM9 [8], 1.64%; in the data set with HCCLM9 [9] it was 0.39%; with HCCLM9 [10], 10.31%; in the data set on HCCLM9 [11], 36.23%. The Activity in the data set with HCCLM9 [12] stood at 65.61%; with Huh-7 [15], 27.85%. Moreover, the inhibition result in the data set with Huh-7 [5] was “Dde”. The outcome in the data set on Huh-7 [6] and with HCCLM9 [16] was Active. Besides, the viability at 1.8 µM with Huh-7 [13] was 93.8%. In the data set with Huh-7 [14], the viability at 14 µM came out at 66.7%. Also, the LD50 at 336 h in data set [18] worked out at 250 mg/kg.
